According to EP0380084A2, “Method for the inhibition of cell-cell and cell substratum interactions by the blocking of carbohydrate-carbohydrate interactions” (The Biomembrane Institute, priority 1989, dated 1990):
Entries after “also recorded” stand apart in the source; their conditions may differ.

How the values were obtained:
[1] = tested on: mouse teratocarcinoma F9 cells; test: F9 cell aggregation assay (microscopy and Coulter Counter count of single cells); format: cell-based; conditions: for self-aggregation of F9 cells: PBS with Ca2+ and Mg2+, 50 mM EDTA, 2 mM LFP II, 2 mM LFP III (Figure 1, panels a-d); for numbers of free (i.e., nonaggregated) cells: Coulter Counter, semiquantitative (Figure 1, panel e), 2 mM LFP II or LFP III
Description: More specifically, mouse teratocarcinoma F9 cells (Bernstine et al., Proc. Natl. Acad. Sci. USA 70:3899-3903, 1973) were grown on gelatin-coated plates in Dulbecco's modified Eagle's medium (DME) containing 4.5 g/l glucose and supplemented with 10% fetal calf serum (FCS) (v/v). The plates were prepared by incubating 0.01% gelatin in water for 30 min.
F9 cells grown to confluency on gelatin-coated plates were harvested using standard trypsin/EDTA solution and washed in DME containing 10% FCS. Next, the cells were carefully resuspended in a PBS solution (containing 0.9 mM Ca²⁺, 0.5 mM Mg²⁺ and 0.1 mM Mn²⁺) and supplemented with 0.1% FCS. The cell samples were mixed carefully before pipetting, and both manual counting and counting with a Coulter Counter (Model ZBI, Coulter Electronics Inc., Hialeah, Fla.) were performed. Adjustments of the aperture on the Coulter Counter were made in order to correlate with the manual counting of the single cells, excluding aggregated cells. For aggregation assays, cells were adjusted to a concentration of about 2.6 x 10⁷/ml. After 1 hr at 37°C, 50 µl aliquots were mixed with 50 µl of ethylenediaminetetraacetic acid (EDTA), LFP II, or LFP III solutions, and cells were incubated for an additional 15 min at 37°C. […] Before measurements on the Coulter Counter, the 100 µl volume sample was diluted to 10 ml and mixed carefully. In experiments were photomicrographs of cells were taken, approximately 0.8 x 10⁶ cells were placed in different PBS solutions (final volume 100 µl) in small Petri dishes. The cell suspension was then covered by mineral oil and incubated at 37°C for 30-60 min, and the process of cell aggregation was observed under the microscope.
The degree of F9 cell aggregation was semiquantitatively expressed by numbers of free (i.e., nonaggregated) cells (panel e), as determined by Coulter Counter with an appropriate aperture setting.

[2] = tested on: mouse T cell lymphoma L5178 AA12 cell line (high expressor of Gg3) to mouse B16 melanoma cell line (high expressor of GM₃); test: Adhesion of 3H-labeled L5178 AA12 lymphoma cells to B16 melanoma cell layer; format: cell-based; conditions: 10 mM EDTA, 5 mM sialyllactose, DH2 2 µg/ml, 2D4 5 µg/ml; 3H remaining after washing (Figure 2, panel c)
Description: Mouse B16 melanoma cells (which express a high level of GM₃) were purchased from American Type Culture Collection (Rockville, MD).
B16 cells (5x10⁴/ml), highly expressing GM₃, were grown on 24-well plates (Falcon, Oxnard, CA) for 24 hrs in DME. The majority of adherent cells were washed with serum-free medium. AA12 cells (Gg3 expressors) or AV27 cells (Gg3 non-expressors) were grown in DME containing 2% FCS, 1 g/l glucose, and 50 µCi ³H-GlcNH₂ for 24 hrs. The labeled AA12 (71,000 cpm/10⁵ cells) and AV27 (33,000 cpm/10⁵ cells) were then collected by centrifugation, suspended in DME containing 2% FCS and 1 g/l glucose, and the cell population adjusted to 6x10⁵/ml. This suspension (1 ml) was added to each well of a Falcon plate on which B16 melanoma cells were grown as adherent culture. The incubated plates were then washed 2x with serum-free fresh medium. L5178 lymphoma cells not adhering to B16 cells were washed out. The remaining cells in each plate were trypsinized, collected, and counted.
B16 melanoma cells grown in 24-well plates and L5178 lymphoma cells were treated respectively with DH2 solution (2 µg/ml) and 2D4 solution (5 µg/ml), left for 30 min at room temperature, washed with serum-­free fresh DME, and incubated with lymphoma cell suspension and melanoma cell layer for 5 hrs.

Le^x glycolipid = test: Interaction of Le^x liposomes with Le^x glycolipid coated on a plastic surface; format: binding
Description: A representative example of a carbohydrate-carbohydrate interaction is the recognition of Le^x(Galβ1 → 4[Fucα1 → 3]GlcNacβ1 → R) by Le^x per se. Le^x pentaosyl glycolipid (III³FucnLc₄) was prepared from human colonic adenocarcinoma.

[3] = tested on: mouse T cell lymphoma L5178 AV27 cell line to B16 cells; conditions: 10 mM EDTA; 3H remaining after washing (Figure 2, panel c)
Description: Mouse B16 melanoma cells (which express a high level of GM₃) were purchased from American Type Culture Collection (Rockville, MD). Expression of GM₃ by B16 cells was defined by MAb DH2 (Dohi et al., Cancer Res. 48:5680-5685, 1988). Mouse T cell lymphoma line L5178 AA12 (which express a high level of Gg3, defined by MAb 2D4; Young et al., J. Exp. Med. 150:1008-1019, 1979) was cloned from 1C1 (Young et al., J. Immunol. 126:1-6, 1981). […] All cells were grown in RPMI 1640 containing 10% FCS.
B16 cells (5x10⁴/ml), highly expressing GM₃, were grown on 24-well plates (Falcon, Oxnard, CA) for 24 hrs in DME. The majority of adherent cells were washed with serum-free medium. AA12 cells (Gg3 expressors) or AV27 cells (Gg3 non-expressors) were grown in DME containing 2% FCS, 1 g/l glucose, and 50 µCi ³H-GlcNH₂ for 24 hrs. The labeled AA12 (71,000 cpm/10⁵ cells) and AV27 (33,000 cpm/10⁵ cells) were then collected by centrifugation, suspended in DME containing 2% FCS and 1 g/l glucose, and the cell population adjusted to 6x10⁵/ml. This suspension (1 ml) was added to each well of a Falcon plate on which B16 melanoma cells were grown as adherent culture. The incubated plates were then washed 2x with serum-free fresh medium. L5178 lymphoma cells not adhering to B16 cells were washed out. The remaining cells in each plate were trypsinized, collected, and counted. […]

Gg3/GM₃ interaction = conditions: antibody: pretreatment of the Gg3-coated solid phase
Le^x liposomes = test: Self-aggregation of Le^x liposomes; format: binding
Description: A representative example of a carbohydrate-carbohydrate interaction is the recognition of Le^x(Galβ1 → 4[Fucα1 → 3]GlcNacβ1 → R) by Le^x per se. Le^x pentaosyl glycolipid (III³FucnLc₄) was prepared from human colonic adenocarcinoma. Within the present invention, Le^x is shown to be the structure recognizing Le^x. […] Fourth, the diffusability of tritium-labeled LFP III (from the lower to the upper Boyden chamber through a semipermeable membrane) was inhibited by Le^x liposomes. In addition, the Le^x-Le^x interaction was highly dependent on bivalent cations (Ca²⁺, Mg²⁺) and was inhibited by EDTA.

Compound	self-aggregation of F9 cells [1]	Adhesion of AA12 cells on B16 melanoma [2]	Le^x-Le^x interaction (Le^x glycolipid; dependent on bivalent cations (Ca2+, Mg2+))	Adhesion of AV27 cells to B16 cells [3]	interaction of Gg3-coated solid phase with GM₃-containing liposomes (Gg3/GM₃ interaction)	numbers of free (i.e., nonaggregated) cells [1]	interaction of Le^x liposomes with immobilized Le^x glycolipid (Le^x glycolipid)	self-aggregation of Le^x liposomes (Le^x liposomes)
O=C(O)CN(CCN(CC(=O)O)CC(=O)O)CC(=O)O [EDTA, ethylenediaminetetraacetic acid]	aggregation did not occur; also recorded: inhibited	greatly suppressed	inhibited	greatly suppressed	inhibited			
CC(=O)NC1C(OC2C(O)C(CO)OC(OC3C(CO)OC(O)C(O)C3O)C2O)OC(CO)C(OC2OC(CO)C(O)C(O)C2O)C1OC1OC(C)C(O)C(O)C1O (stereo not drawn) [LFP III]	aggregation was inhibited					increased greatly	specifically inhibited	specifically inhibited
CC(=O)N[C@H]1[C@H](O[C@H]2[C@@H](O)[C@@H](CO)O[C@@H](O[C@H]3[C@H](O)[C@@H](O)C(O)O[C@@H]3CO)[C@@H]2O)O[C@H](CO)[C@@H](O[C@@H]2O[C@@H](C)[C@@H](O)[C@@H](O)[C@@H]2O)[C@@H]1O[C@@H]1O[C@H](CO)[C@H](O)[C@H](O)[C@H]1O (stereo partly drawn) [LFP II]	aggregation of F9 cells; also recorded: not by LFP II					much less		
sialyllactose		markedly inhibited						
